Legend:
[1] = target: T1, p38 MAPKα isoform (MAPK14) (Homo sapiens, UniProt Q16539); experiment: p38 MAPKα enzyme inhibition (Z-LYTE FRET); format: biochemical; conditions: Table 2B, unit inferred; read-out: p38 MAPKα (Enzyme Profile)
T1 construct: purchased Life Technologies
Outline: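 Activity was measured indirectly as phosphorylation of a MAPKAP-K2-derived FRET peptide. Enzyme (added at 40 ng/mL) was preincubated 2 h at RT with compound (added solutions 40–0.0012 μg/mL).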

p38MAPKγ (MAPK12) = target: T2, p38MAPKγ (MAPK12) (Homo sapiens, UniProt P53778); experiment: p38 MAPKγ enzyme inhibition (Z-LYTE FRET); format: biochemical; conditions: Table 2B, unit inferred; read-out: p38 MAPKγ (Enzyme Profile)
T2 construct: purchased Life Technologies
T2 sequence (P53778 1-367): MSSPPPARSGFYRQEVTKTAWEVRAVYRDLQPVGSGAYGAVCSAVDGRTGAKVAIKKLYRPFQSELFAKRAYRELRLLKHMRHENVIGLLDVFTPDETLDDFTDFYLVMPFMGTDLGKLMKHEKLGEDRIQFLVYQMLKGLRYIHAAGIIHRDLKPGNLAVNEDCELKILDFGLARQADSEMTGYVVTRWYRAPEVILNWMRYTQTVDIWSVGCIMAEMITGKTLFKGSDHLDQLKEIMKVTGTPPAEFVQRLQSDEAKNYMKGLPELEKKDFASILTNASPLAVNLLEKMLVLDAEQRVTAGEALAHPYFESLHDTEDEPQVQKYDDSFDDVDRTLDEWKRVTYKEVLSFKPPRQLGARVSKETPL
Outline: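 Enzyme (added at 800 ng/mL) was preincubated 2 h at RT with compound (solutions of 40 to 0.0012 μg/mL), then FRET peptide (8 μM) and ATP (400 μM), both as added, were reacted 1 h at RT. Protease development followed for 1 h; phosphorylation was read as the coumarin/fluorescein emission ratio.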

T1 sequence (Q16539 whole entry, canonical isoform): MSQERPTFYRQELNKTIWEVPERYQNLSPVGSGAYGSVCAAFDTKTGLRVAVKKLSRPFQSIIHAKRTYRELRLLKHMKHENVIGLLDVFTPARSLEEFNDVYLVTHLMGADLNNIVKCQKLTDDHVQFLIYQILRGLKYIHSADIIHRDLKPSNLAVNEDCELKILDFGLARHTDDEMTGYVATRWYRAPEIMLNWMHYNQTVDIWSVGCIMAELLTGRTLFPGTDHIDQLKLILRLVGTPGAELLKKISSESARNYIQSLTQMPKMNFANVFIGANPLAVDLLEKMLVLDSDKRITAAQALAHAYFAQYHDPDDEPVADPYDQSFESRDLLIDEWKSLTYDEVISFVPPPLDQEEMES

Cc1ccc(-n2nc(C(C)(C)C)cc2NC(=O)Nc2ccc(OCc3ccnc(Nc4cnc(C(=O)N5CC[C@H](O)C5)cn4)c3)c3ccccc23)cc1 [Example 126, (S)-1-(3-(tert-butyl)-1-(p-tolyl)-1H-pyrazol-5-yl)-3-(4-((2-((5-(3-hydroxypyrrolidine-1-carbonyl)pyrazin-2-yl)amino)pyridin-4-yl)methoxy)naphthalen-1-yl)urea]
IC50 [1]: 47 nM
IC50 (p38MAPKγ (MAPK12)): 187 nM

Cc1ccc(-n2nc(C(C)(C)C)cc2NC(=O)Nc2ccc(OCc3ccnc(Nc4cnc(C(=O)N5CCC(O)CC5)cn4)c3)c3ccccc23)cc1 [Example 127, 1-(3-(tert-butyl)-1-(p-tolyl)-1H-pyrazol-5-yl)-3-(4-((2-((5-(4-hydroxypiperidine-1-carbonyl)pyrazin-2-yl)amino)pyridin-4-yl)methoxy)naphthalen-1-yl) urea]
IC50 [1]: 6.8 nM
IC50 (p38MAPKγ (MAPK12)): 93 nM

Cc1ccc(-n2nc(C(C)(C)C)cc2NC(=O)Nc2ccc(OCc3ccnc(Nc4cnc(C(=O)N5CCC5)cn4)c3)c3ccccc23)cc1 [Example 128, 1-(4-((2-((5-(azetidine-1-carbonyl)pyrazin-2-yl)amino)pyridin-4-yl)methoxy)naphthalen-1-yl)-3-(3-(tert-butyl)-1-(p-tolyl)-1H-pyrazol-5-yl)urea]
IC50 [1]: 55 nM
IC50 (p38MAPKγ (MAPK12)): > 14700 nM

CCc1ncc(Nc2cc(COc3ccc(NC(=O)Nc4cc(C(C)(C)C)nn4-c4ccc(C)cc4)c4ccccc34)ccn2)nc1C [Example 129, 1-(3-(tert-butyl)-1-(p-tolyl)-1H-pyrazol-5-yl)-3-(4-((2-((5-ethyl-6-methylpyrazin-2-yl)amino)pyridin-4-yl)methoxy)naphthalen-1-yl) urea]
IC50 [1]: 40 nM
IC50 (p38MAPKγ (MAPK12)): > 15600 nM

Cc1ccc(-n2nc(C(C)(C)C)cc2NC(=O)Nc2ccc(OCc3ccnc(Nc4cnc5c(n4)CCC5)c3)c3ccccc23)cc1 [Example 130, 1-(3-(tert-butyl)-1-(p-tolyl)-1H-pyrazol-5-yl)-3-(4-((2-((6,7-dihydro-5H-cyclopenta [b]pyrazin-2-yl)amino)pyridin-4-yl)methoxy)naphthalen-1-yl)urea]
IC50 [1]: 31 nM
IC50 (p38MAPKγ (MAPK12)): 2790 nM

CC(C)c1cccc(-n2nc(C(C)(C)C)cc2NC(=O)Nc2ccc(OCc3ccnc(Nc4cnccn4)c3)c3ccccc23)c1 [Example 131, 1-(3-(tert-butyl)-1-(3-isopropylphenyl)-1H-pyrazol-5-yl)-3-(4-((2-(pyrazin-2-ylamino)pyridin-4-yl)methoxy)naphthalen-1-yl) urea]
IC50 [1]: 14 nM
IC50 (p38MAPKγ (MAPK12)): > 15900 nM

COCCNC(=O)c1cnc(Nc2cc(COc3ccc(NC(=O)Nc4cc(C(C)(C)C)nn4-c4ccc(OC)c(C)c4)c4ccccc34)ccn2)cn1 [Example 132, 5-((4-(((4-(3-(3-(tert-butyl)-1-(4-methoxy-3-methyl-phenyl)-1H-pyrazol-5-yl)ureido)naphthalen-1-yl)oxy)methyl)pyridin-2-yl)amino)-N-(2-methoxyethyl)pyrazine-2-carboxamide]
IC50 [1]: 11 nM
IC50 (p38MAPKγ (MAPK12)): > 13700 nM

COc1ccc(-n2nc(C(C)(C)C)cc2NC(=O)Nc2ccc(OCc3ccnc(Nc4cnc(CO)cn4)c3)c3ccccc23)cc1C [Example 133, 1-(3-(tert-butyl)-1-(4-methoxy-3-methylphenyl)-1H-pyrazol-5-yl)-3-(4-((2-((5-(hydroxymethyl)pyrazin-2-yl)amino)pyridin-4-yl)methoxy)naphthalen-1-yl) urea]
IC50 [1]: 7.3 nM
IC50 (p38MAPKγ (MAPK12)): 10200 nM

Cc1ccc(-n2nc(C(C)(C)C)cc2NC(=O)Nc2ccc(OCc3ccnc(Nc4cnc(C(=O)NCCCO)cn4)c3)c3ccccc23)cc1 [Example 134, 5-((4-(((4-(3-(3-(tert-butyl)-1-(p-tolyl)-1H-pyrazol-5-yl)ureido)naphthalen-1-yl)oxy)methyl)pyridin-2-yl)amino)-N-(3-hydroxy-propyl)pyrazine-2-carboxamide]
IC50 [1]: 3.8 nM
IC50 (p38MAPKγ (MAPK12)): 35 nM

COc1ccc(-n2nc(C(C)(C)C)cc2NC(=O)Nc2ccc(OCc3ccnc(Nc4cnc(C)c(C)n4)c3)c3ccccc23)cc1C [Example 135, 1-(3-(tert-butyl)-1-(4-methoxy-3-methylphenyl)-1H-pyrazol-5-yl)-3-(4-((2-((5,6-dimethylpyrazin-2-yl)amino)pyridin-4-yl)methoxy)naphthalen-1-yl) urea]
IC50 [1]: 52 nM
IC50 (p38MAPKγ (MAPK12)): > 15200 nM

Cc1ccc(-n2nc(C(C)(C)C)cc2NC(=O)Nc2ccc(OCc3ccnc(Nc4cnc(C(=O)N5CCN(C)CC5)cn4)c3)c3ccccc23)cc1 [Example 136, 1-(3-(tert-butyl)-1-(p-tolyl)-1H-pyrazol-5-yl)-3-(4-((2-((5-(4-methylpiperazine-1-carbonyl)pyrazin-2-yl)amino)pyridin-4-yl)methoxy)naphthalen-1-yl)urea]
IC50 [1]: < 0.41 nM
IC50 (p38MAPKγ (MAPK12)): 41 nM

Cc1ccc(-n2nc(C(C)(C)C)cc2NC(=O)Nc2ccc(OCc3ccnc(Nc4cnc(C(=O)N5CCCCC5)cn4)c3)c3ccccc23)cc1 [Example 137, 1-(3-(tert-butyl)-1-(p-tolyl)-1H-pyrazol-5-yl)-3-(4-((2-((5-(piperidine-1-carbonyl)pyrazin-2-yl)amino)pyridin-4-yl)methoxy)naphthalen-1-yl)urea]
IC50 [1]: 6 nM
IC50 (p38MAPKγ (MAPK12)): > 14100 nM

Cc1ccc(-n2nc(C(C)(C)C)cc2NC(=O)Nc2ccc(OCc3ccnc(Nc4cnc5c(n4)CCCC5)c3)c3ccccc23)cc1 [Example 138, 1-(3-(tert-butyl)-1-(p-tolyl)-1H-pyrazol-5-yl)-3-(4-((2-((5,6,7,8-tetrahydro-quinoxalin-2-yl)amino)pyridin-4-yl)methoxy)naphthalen-1-yl)urea]
IC50 [1]: 29 nM
IC50 (p38MAPKγ (MAPK12)): > 15300 nM

CCc1ncc(Nc2cc(COc3ccc(NC(=O)Nc4cc(C(C)(C)C)nn4-c4ccc(C)cc4)c4ccccc34)ccn2)nc1CC [Example 139, 1-(3-(tert-butyl)-1-(p-tolyl)-1H-pyrazol-5-yl)-3-(4-((2-((5,6-diethylpyrazin-2-yl)amino)pyridin-4-yl)methoxy)naphthalen-1-yl) urea]
IC50 [1]: 53 nM
IC50 (p38MAPKγ (MAPK12)): 1110 nM

CCc1cncc(Nc2cc(COc3ccc(NC(=O)Nc4cc(C(C)(C)C)nn4-c4ccc(OC)c(C)c4)c4ccccc34)ccn2)n1 [Example 140, 1-(3-(tert-butyl)-1-(4-methoxy-3-methylphenyl)-1H-pyrazol-5-yl)-3-(4-((2-((6-ethylpyrazin-2-yl)amino)pyridin-4-yl)methoxy)naphthalen-1-yl)urea]
IC50 [1]: 29 nM
IC50 (p38MAPKγ (MAPK12)): > 15200 nM

CCc1cncc(Nc2cc(COc3ccc(NC(=O)Nc4cc(C(C)(C)C)nn4-c4cccc(C)c4)c4ccccc34)ccn2)n1 [Example 141, 1-(3-(tert-butyl)-1-(m-tolyl)-1H-pyrazol-5-yl)-3-(4-((2-((6-ethylpyrazin-2-yl)amino)pyridin-4-yl)methoxy)naphthalen-1-yl)urea]
IC50 [1]: 18 nM
IC50 (p38MAPKγ (MAPK12)): 438 nM

COc1cccc(-n2nc(C(C)(C)C)cc2NC(=O)Nc2ccc(OCc3ccnc(Nc4cnccn4)c3)c3ccccc23)c1 [Example 142, 1-(3-(tert-butyl)-1-(3-methoxyphenyl)-1H-pyrazol-5-yl)-3-(4-((2-(pyrazin-2-ylamino)pyridin-4-yl)methoxy)naphthalen-1-yl) urea]
IC50 [1]: 5.7 nM
IC50 (p38MAPKγ (MAPK12)): 78 nM

CCc1nc(Nc2cc(COc3ccc(NC(=O)Nc4cc(C(C)(C)C)nn4-c4ccc(C)cc4)c4ccccc34)ccn2)cnc1C [Example 143, 1-(3-(tert-butyl)-1-(p-tolyl)-1H-pyrazol-5-yl)-3-(4-((2-((6-ethyl-5-methylpyrazin-2-yl)amino)pyridin-4-yl)methoxy)naphthalen-1-yl) urea]
IC50 [1]: 19 nM
IC50 (p38MAPKγ (MAPK12)): 211 nM

CCc1cncc(Nc2cc(COc3ccc(NC(=O)Nc4cc(C(C)(C)C)nn4-c4ccc(C)c(C)c4)c4ccccc34)ccn2)n1 [Example 144, 1-(3-(tert-butyl)-1-(3,4-dimethylphenyl)-1H-pyrazol-5-yl)-3-(4-((2-((6-ethylpyrazin-2-yl)amino)pyridin-4-yl)methoxy)naphthalen-1-yl)urea]
IC50 [1]: 63 nM
IC50 (p38MAPKγ (MAPK12)): 518 nM

Cc1ccc(-n2nc(C(C)(C)C)cc2NC(=O)Nc2ccc(OCc3ccnc(Nc4cncc(C5CC5)n4)c3)c3ccccc23)cc1C [Example 145, 1-(3-(tert-butyl)-1-(3,4-dimethylphenyl)-1H-pyrazol-5-yl)-3-(4-((2-((6-cyclopropylpyrazin-2-yl)amino)pyridin-4-yl)methoxy)naphthalen-1-yl)urea]
IC50 [1]: 43 nM
IC50 (p38MAPKγ (MAPK12)): 260 nM

Cc1ccc(-n2nc(C(C)(C)C)cc2NC(=O)Nc2ccc(OCc3ccnc(Nc4cnc(C)c(C)n4)c3)c3ccccc23)cc1C [Example 146, 1-(3-(tert-butyl)-1-(3,4-dimethylphenyl)-1H-pyrazol-5-yl)-3-(4-((2-((5,6-dimethylpyrazin-2-yl)amino)pyridin-4-yl)methoxy)naphthalen-1-yl)urea]
IC50 [1]: 69 nM
IC50 (p38MAPKγ (MAPK12)): 1550 nM

Cc1ccc(-n2nc(C(C)(C)C)cc2NC(=O)Nc2ccc(OCc3ccnc(Nc4cnc(CO)cn4)c3)c3ccccc23)cc1C [Example 147, 1-(3-(tert-butyl)-1-(3,4-dimethylphenyl)-1H-pyrazol-5-yl)-3-(4-((2-((5-(hydroxymethyl)pyrazin-2-yl)amino)pyridin-4-yl)methoxy)naphthalen-1-yl) urea]
IC50 [1]: 4.1 nM
IC50 (p38MAPKγ (MAPK12)): 119 nM
